Publication PMC11496845, “Preparation, characterization, and in vitro cytogenotoxic evaluation of a novel dimenhydrinate-β-cyclodextrin inclusion complex” (Biomolecules and Biomedicine, 2024)
Marks after values point to notes of the source that are not given here.

Experiments:
[1] = β-CD […] (w/w), 25 mg DMH/mL of water
Experimental: Phase solubility studies were performed according to the Higuchi and Connors’ method [21]. […] Sample solutions were prepared as described by Hindija et al. [22]. […] Each measurement was run in triplicate.
Phase solubility studies, where the change of drug solubility corresponds to CD concentration, were conducted to assess the binding characteristics of the drug and CD and to determine the values of stability constant (Ks), complexation efficacy (CE), and utility number (UCD).
The utility number (UCD) is expressed as: (4) [drawing 4] where mD and mCD are the drug dose and workable amount of CD in mg, respectively, while MWD and MWCD stand for molecular weights of D and CD [22].

HEK293 cells = test system: HEK293 cells; design: method as in earlier work; conditions: cited from earlier work
PBMCs [2] = assay: Cytokinesis block micronucleus cytome (CBMN-cyt) assay; format: cell-based, human; design: Total MNi (mean ± SD) / BN cells with MNi (mean ± SD) / NBUDs (mean ± SD) / NPBs (mean ± SD): unit not given here
Text: DNA damage events were scored specifically in once-divided binucleated (BN) cells and included micronuclei (MNi), a biomarker of chromosome breakage and/or whole chromosome loss, nucleoplasmic bridges (NPBs), a biomarker of DNA misrepair and/or telomere end-fusions, and nuclear buds (NBUDs), a biomarker of elimination of amplified DNA and/or DNA repair complexes. Cytostatic and cytotoxic effects were examined by calculating the nuclear division index (NDI) and nuclear division cytotoxicity index (NDCI) based on the proportion of mono-, bi-, and multinucleated cells and necrotic and/or apoptotic cell ratios, respectively.
Whole blood, 400 µL per each treatment, was cultured in PB-MAX™ Karyotyping Medium for 72 h at 37 ^∘C. […] Untreated cultures were set up as negative controls. Cytochalasin B was added to the final concentration of 4.5 µg/mL to block cytokinesis.
After the cultivation period, cultures were centrifuged for 10 min at 1000 rpm (188 × g) and subjected to hypotonic treatment with 0.56% KCl and centrifuged immediately after the hypotonic addition. Hypotonic treatment was followed by three fixations in ice-cold glacial acetic acid + ethanol (1:3) fresh fixative. The fixed lymphocyte solution was dropped on coded microscope slides. Air-dried slides were stained in 5% Giemsa for 7 min. […] Frequencies of mononuclear, binuclear, trinuclear, and quadrinuclear cells, as well as apoptotic and necrotic cells, were scored in a total number of at least 500 cells. All genotoxicity and cytotoxicity parameters were recognized according to the criteria given by Fenech.

human PBMCs = assay: MTT assay, cell viability; conditions: human PBMCs, 72 h, 36.36–109.09 ng/mL
Experimental: (§1) Blood was collected by venipuncture into heparinized vacutainers (BD Vacutainer Systems, Plymouth, UK), stored at room temperature, protected from light, and processed within 2 h. PBMCs were isolated by density gradient centrifugation (400 × g, 30 min) with separation medium (Histopaque® - 1077). After isolation, PBMCs were stained with Trypan blue and counted using a hemocytometer.
(§2) The MTT assay is regarded as a sensitive and reliable colorimetric assay to quantify cellular viability, proliferation, and activation. It is based on the ability of mitochondrial nicotinamide adenine dinucleotide phosphate (NADPH)-dependent cellular oxidoreductase enzymes present in viable cells to reduce soluble tetrazolium salt (3-[4,5-dimethylthiazol-2-yl]-2,5 diphenyl tetrazolium bromide) to insoluble, colored formazan compounds [26].
(§3) The MTT assay was conducted in triplicate in the 96-well plate, with two technical replicates. The seeding density was 6.25 × 10^3 cells per well.
(§4) After 72 h of incubation, the reagent MTT was added to samples for 3 h at 37 ^∘C. DMSO was added to solubilize the formazan crystals followed by further incubation for 30 and 60 min at 37 ^∘C. The optical density was measured at 570 nm using the multiplate reader Multi-Scan FC (Thermo Fisher Scientific, USA). The cell viability was determined according to (5): (5) [drawing 5]

MDA-MB-231 cancer cells = conditions: cited from earlier work
Calu-3 cells = test system: Calu-3 cells; design: method as in PMID 18160169; conditions: cited from earlier work
PBMCs [3] = assay: Alkaline comet assay, tail intensity; format: cell-based, human; conditions: 3 h
Experimental: as §1
The comet assay is a sensitive technique for measuring DNA damage at the level of the individual eukaryotic cell. It is based upon the fact that denatured cleaved DNA fragments, or damaged DNA, migrate out of the cell at a different rate during electrophoresis than undamaged DNA [32]. Damaged DNA creates a “comet tail,” while the undamaged DNA remains within the cell membrane creating the “comet head.” The Comet assay is most commonly run under alkaline conditions to detect single and double-stranded DNA breaks.
PBMCs were isolated as previously described and then cultivated in PB-MAX™ Karyotyping Medium and incubated for 24 h at 37 ^∘C. […] Positive and negative controls were also set up equally. Treated cells were incubated at 37 ^∘C for 3 h and then centrifuged at 800 rpm (120 × g) for 5 min. The supernatant was removed and the cells were subsequently resuspended.
In a tube containing 120 µL of 0.7% LMPA, 80 µL of the sample was added for each tested concentration and controls. Prepared samples were applied to slides precoated with a 1% NMPA and covered with coverslips. After gel polymerization, coverslips were removed and slides were immersed in lysis buffer overnight at 4 ^∘C. Afterward, slides were washed with distilled water and placed into the electrophoresis tank with an electrophoresis solution (200 mM Na2EDTA, 10 M NaOH, and distilled water, pH > 13) for 20 min, followed by 20 min of electrophoresis (1 V/cm). After electrophoresis, slides were gently rinsed in the following sequences: phosphate-buffered saline (PBS) for 5 min, 70% (V/V) ethanol for 5 min, and finally 96% (V/V) ethanol for 15 min.
Prior to the fluorescent microscope analysis (U-MNU2; Olympus BX51, Tokyo, Japan), slides were rehydrated and stained with DAPI (1 µg/mL). DNA damage in treated cells was evaluated using Comet Assay IV software (Instem LSS Ltd., Staffordshire, UK), by measuring tail intensity (TI%), the percent of DNA in the tail of comets. For each concentration, as well as for positive and negative controls, at least 200 comets were analyzed. The Minimum Information for Reporting Comet Assay (MIRCA) protocol was used to report the results.

mouse retinal cells = test system: mouse retinal cells; design: method as in PMID 33803405; conditions: cited from earlier work
HCT-116 cancer cells = conditions: cited from earlier work
[4] = test system: endothelial (HUVEC) cells; conditions: cited from earlier work
HeLa cells = test system: HeLa cells; design: method as in PMID 19616959; conditions: cited from earlier work
[5] = MTT assay, cell viability; conditions: male, human, peripheral blood mononuclear cells (PBMCs)
Experimental: as §1, §2, §3, §4

LO2 cells = test system: LO2 cells; design: method as in PMID 26256188; conditions: cited from earlier work

CN(C)CCOC(c1ccccc1)c1ccccc1.Cn1c(=O)c2[nH]c(Cl)nc2n(C)c1=O [DMH, 2-benzhydryloxy-N,N-dimethylethanamine; 8-chloro-1,3-dimethyl-7H-purine-2,6-dione]
UCD, utility number [1]: 1.156 | Effect on cell viability (HEK293 cells): may slightly affect the viability | NBUDs (mean ± SD) (PBMCs [2]; DMH 72.73 ng/mL): 0.75 ± 0.96^s | NPBs (mean ± SD) (PBMCs [2]; DMH 72.73 ng/mL): 0.25 ± 0.5 | Total MNi (mean ± SD) (PBMCs [2]; DMH 72.73 ng/mL, BN cells): 4.25 ± 0.96^r, s | NBUDs (mean ± SD) (PBMCs [2]; DMH 90.91 ng/mL): 1.75 ± 1.26^s | NPBs (mean ± SD) (PBMCs [2]; DMH 90.91 ng/mL): 0.25 ± 0.5 | Total MNi (mean ± SD) (PBMCs [2]; DMH 90.91 ng/mL, BN cells): 6.5 ± 1.92^s | NBUDs (mean ± SD) (PBMCs [2]; DMH 109.09 ng/mL): 1 ± 0.82^s | NPBs (mean ± SD) (PBMCs [2]; DMH 109.09 ng/mL): 0.25 ± 0.5 | Total MNi (mean ± SD) (PBMCs [2]; DMH 109.09 ng/mL, BN cells): 6.5 ± 2.38^s | Difference in cell viability versus negative control (Tukey–Kramer) (human PBMCs): no statistically significant differences

OC[C@H]1O[C@@H]2O[C@H]3[C@H](O)[C@@H](O)[C@@H](O[C@H]4[C@H](O)[C@@H](O)[C@@H](O[C@H]5[C@H](O)[C@@H](O)[C@@H](O[C@H]6[C@H](O)[C@@H](O)[C@@H](O[C@H]7[C@H](O)[C@@H](O)[C@@H](O[C@H]8[C@H](O)[C@@H](O)[C@@H](O[C@H]1[C@H](O)[C@H]2O)O[C@@H]8CO)O[C@@H]7CO)O[C@@H]6CO)O[C@@H]5CO)O[C@@H]4CO)O[C@@H]3CO [β-CD, β-cyclodextrin]
Effect on cell viability (MDA-MB-231 cancer cells): does not affect cell viability | Effect on cell viability (Calu-3 cells): does not affect cell viability | Tail intensity (mean ± SD) (PBMCs [3]; concentration of β-CD 250 ng/mL): 3.02 ± 1.45% | Tail intensity (mean ± SD) (PBMCs [3]; concentration of β-CD 500 ng/mL): 3.22 ± 1.09% | Tail intensity (mean ± SD) (PBMCs [3]; concentration of β-CD 750 ng/mL): 3.25 ± 1.02% | Tail intensity (mean ± SD) (PBMCs [3]; concentration of β-CD 1000 ng/mL): 3.42 ± 1.08% | Effect on cell viability (mouse retinal cells): does not affect cell viability | Effect on cell viability (HCT-116 cancer cells): does not affect cell viability | Effect on cell viability [4]: does not affect cell viability | Effect on cell viability (HeLa cells): does not affect cell viability | viability at 72 h, 1000 ng/mL [5]: 90.3% | Effect on cell viability (LO2 cells): does not affect cell viability

O=c1[nH]cc(F)c(=O)[nH]1 [5-FU, 5-fluorouracil]
Genotoxic effects in alkaline comet assay (PBMCs [3]): genotoxic effects were observed | Tail intensity (mean ± SD) (PBMCs [3]; 5-FU 100 µg/mL): 5.93 ± 0.23% | BN cells with MNi (mean ± SD) (PBMCs [2]; positive control): 19 ± 6.56 | NBUDs (mean ± SD) (PBMCs [2]; positive control): 3.5 ± 1.92 | NDCI, nuclear division cytotoxicity index (mean ± SD) (PBMCs [2]; positive control): 1.577 ± 0.01 | NDI, nuclear division index (mean ± SD) (PBMCs [2]; positive control): 1.612 ± 0.01 | NPBs (mean ± SD) (PBMCs [2]; positive control): 1 ± 0.82 | Total MNi (mean ± SD) (PBMCs [2]; positive control): 19.25 ± 6.65 | viability at 72 h, 100 µg/mL [5]: 64.8%
